Consider one compound from patent publication US20190030018A1 (Celgene Corporation, priority 2017, published 2019).

Series [1] can be described thus: physchem. The format is physicochemical. Conditions: organic solvent or mixture, thermodynamic from solid, drug solubility in formic acid. As to the method:
A solvent screen was conducted to identify suitable Class 3 solvents listed in the ICH (International Conference on Harmonisation) Q3C Guidance as the Class 3 solvents have a higher permitted daily exposure (PDE) level of 50 mg/day. A good solvent candidate was considered to have 1) good miscibility with water and 2) sufficiently low boiling point so that it can be easily removed during the lyophilization process.

In series [2] the test system is GSPT1 expression, mTOR activation, Mcl-1 expression and Caspase-3 cleavage in AML cells. Nature of the series: Immunoblot analysis of AML cells treated with Compound 1 and everolimus. The format is cell-based. Particulars: AML cell lines HNT-34 and KG1, Compound 1 alone. The source says:
Whole cell extracts were collected and subjected to immunoblot analysis.
On the technique in general: Immunoblotting shows a protein as a band on a membrane.

≈ marks a conversion by molar mass, not a printed value.

With `O=C1CCC(N2Cc3cc(CNC(=O)C(F)(F)c4ccc(Cl)cc4)ccc3C2=O)C(=O)N1` (centres unmarked) [Compound 1, 2-(4-chlorophenyl)-N-((2-(2,6-dioxopiperidin-3-yl)-1-oxoisoindolin-5-yl)methyl)-2,2-difluoroacetamide], in series [1], the solubility (in general, how much of the substance goes into solution per volume) is about 170 mg/mL (≈ 368 mM). The “GSPT1 degradation, Caspase-3 cleavage and Mcl-1 loss” value in series [2] is “sufficient to induce robust GSPT1 degradation, Caspase-3 cleavage, and Mcl-1 loss”.
